Experimental data published in patent US20030017567A1, “Biological sample processing methods and compositions that include surfactants” (3M Innovative Properties Company, priority 2001, published 2003).
Marks after values point to notes of the source that are not given here.

Tests used:
T4 DNA ligase = target: T1, T4 DNA ligase (Enterobacteria phage T4, UniProt P00970); assay: DNA ligation reaction, read out by E. coli DH10B transformant colonies and by PCR of ligated products; assay type: biochemical; settings: 4 wt-% PLURONIC for 785 WS; 4 wt-% TWEEN-20 for SDA 8080; similar number of colonies as control
T1 construct: purchased Life Technologies, Inc, Gaithesburg, Md
T1 sequence (P00970 1-487): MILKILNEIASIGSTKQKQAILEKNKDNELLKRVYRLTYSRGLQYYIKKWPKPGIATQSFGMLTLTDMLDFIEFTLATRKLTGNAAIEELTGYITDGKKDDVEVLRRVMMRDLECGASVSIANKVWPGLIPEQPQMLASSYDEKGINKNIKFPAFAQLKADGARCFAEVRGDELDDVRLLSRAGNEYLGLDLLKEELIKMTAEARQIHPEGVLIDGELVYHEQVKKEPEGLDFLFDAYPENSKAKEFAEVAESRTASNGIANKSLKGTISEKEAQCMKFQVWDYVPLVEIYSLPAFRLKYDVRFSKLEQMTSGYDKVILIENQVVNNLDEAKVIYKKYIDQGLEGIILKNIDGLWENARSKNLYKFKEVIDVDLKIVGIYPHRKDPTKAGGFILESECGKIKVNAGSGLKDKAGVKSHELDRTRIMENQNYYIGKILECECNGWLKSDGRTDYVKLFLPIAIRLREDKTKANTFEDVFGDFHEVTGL
Description: DNA ligation reactions were set up using T4 DNA ligase (Life Technologies, Inc, Gaithesburg, Md.) using a linearized plasmid template (pET21a, Novagen, Madison, Wis.) and a DNA insert. The reagents were used according to manufacturer's instructions. Escherichia coli DH10B competent cells were transformed with the ligated products and transformed cells were plated on Clondisc (Clontech, Palo Alto, Calif.) with appropriate antibiotic (ampicillin at 50 μg/mL). After incubation of plates at 37° C. for 16 hours to 18 hours, the resulting colonies were counted and analysed for plasmid by miniprep and restriction digest. […] In addition, all of the plasmids isolated from these plates contained the same insert as verified by restriction digest and DNA sequencing.
In addition to transformation and plating with the ligation mix, the ligated products were used as DNA template in a PCR reaction containing primers flanking the insert DNA on the plasmid template (T7 promoter and T7 terminator primers, Novagen).

[1] = target: T2, AMPLITAQ DNA polymerase (Taq polymerase) (Thermus aquaticus, UniProt P19821); assay: PCR amplification of PERV protease fragment (327 bp) in presence of dye/surfactant; product on agarose gel or quantitated with Agilent 2100 Bioanalyzer; assay type: biochemical
T2 construct: purchased Applied Biosystems, Foster City, Calif
Description: Typically, a fresh stock solution of 5 milligrams (mg) of a water-insoluble near-infrared dye (NIR dye) was dissolved in 50 microliters (μL) of dimethylsulfoxide (DMSO) and brought up in water to a final volume of 1 milliliter (mL). This was then diluted out to various concentrations of dye. The diluted dye (typically 0.2 mg/mL) was then added to a surfactant solution (typically 4 wt-%) to form a complex. The complex was added to a PCR reaction.
PCR reactions were set up for a conserved sequence (327 bp) in the protease region of the genome of porcine endogenous retrovirus using a plasmid containing the PERV protease fragment, a forward primer and a reverse primer designed using a primer express program from Applied Biosystems, and AMPLITAQ DNA polymerase cocktail (commercially available from Applied Biosystems, Foster City, Calif.) and cycled in a thermocycler (9700, Applied Biosystems). The PCR reactions were typically carried out in 25-μL volumes. The NIR dye/surfactant mixture was added to the PCR cocktail to give the desired concentration of dye and surfactant in a total volume of 25 μL. A typical PCR cocktail contains 10x buffer, 2.5 μL; dNTPs, 2.0 μL (200 μM of each); forward primer, 0.5 μL (200 nM); reverse primer, 0.5 μL (200 nM); template DNA, 1.0 (1 ng/μL); Amplitaq, 0.25 μL (1.25 units); sterile water, 18.25 μL.
The products of PCR reactions were run on 1% agarose gel containing ethidium bromide and visualized using an ALPHA IMAGER (Alpha Innotech Corp., San Leandro, Calif.). […] However, a higher concentration of dye (0.1 mg/mL) for effective heating was needed. Thus, for all further PCR experiments, a dye concentration of 0.1 mg/mL or higher was used. […] Taq polymerase was tested from different manufacturers (Promega Corp., Madison, Wis.; Roche Biochemicals, Indianapolis, Ind.; Eppendorf, Scientific Inc., Westbury, N.Y.; Sigma, St. Louis, Mo.) and all the Taq polymerases were inhibited by 785 WS and SDA 8080.
In order to find out the optimum concentration of surfactant for PCR with NIR dye (785 WS and SDA 8080), the surfactant concentration in PCR reaction was varied from 0.1 wt-% to 4 wt-%. The PCR product formed was quantitated using DNA 7500 Labchip kit in Agilent 2100 Bioanalyzer (Agilent Inc, Paloalto, Calif.). The results shown in Table 3 indicate that increasing the concentration of surfactant relative to dye assists in the formation of PCR product.
A variety of dyes (NIR dyes such as IR782, IR768, SDA 2141, SDA8327, IR 830 WS, fluorescent dyes like oligreen and visible dyes like dichlorophenol, indophenol, saffranin, crystal violet, and commercially available food coloring) at typical concentrations of 0.1 or 0.2 mg/mL were allowed to interact with 4 wt-% PLURONIC F127 and each mixture was added to the PCR cocktail. The reaction was set up to amplify PERV protease fragment as described in Example 2 and the products of the reaction were analyzed by agarose gel electrophoresis.

Taq polymerase = Taq polymerase (Thermus aquaticus, UniProt P19821); assay: Quantitative PCR using TaqMan probes or Sybr green; assay type: biochemical; settings: with SDA 8080 0.2 mg/mL or 785 WS 0.1 mg/mL, both cases
[2] = Laser stability / photobleaching of dye solution on repeated laser exposure; assay type: physicochemical; settings: SDA 8080 (0.2 mg/mL), surfactant 20 wt %; 25 exposures
Description: An 813-nm diode laser source at 1.2W (1.9A) (Opto Power Corp., Tucson, Ariz. ) was used to heat a 10μL volume of near-IR dye at a concentration (0.1 mg/mL for 785 WS, 0.2 mg/iL for SDA 8080) to yield a 35° C. rise in temperature. The laser was manually turned on long enough for the temperature in a 10-μL well to increase by 35° C. (1-3 seconds) and was manually turned off when that level was attained. The temperature data was obtained using a thermocouple in the well, and the transmittance data was obtained via a power meter whose signals were digitized and graphically interpreted.
In another experiment, the 10 μL well was used to see if the dye/surfactant mixture could withstand laser cycling over a period of 30 cycles. The laser power was systematically varied from 60° C. to 94° C., 30 times.
Unlike in Example 8, some dyes and dye/surfactant complexes undergo photodegradation when exposed to laser beam. […] Specifically, in the case of 785 WS/BRIJ-97, the addition of ascorbic acid (typically 5 mg/mL) helped reduce the amount of photobleaching from 100% to 20% after 30 cycles. In some circumstances, rapid/controlled photodegradation may be desired. […] This would allow DNA tags (fluorescent or vis/IR) to be monitored at the end of the PCR reaction.
Vitamin E-TPGS has both surfactant as well as antioxidant properties.

T2 sequence (P19821 whole entry, the tested form may be a part): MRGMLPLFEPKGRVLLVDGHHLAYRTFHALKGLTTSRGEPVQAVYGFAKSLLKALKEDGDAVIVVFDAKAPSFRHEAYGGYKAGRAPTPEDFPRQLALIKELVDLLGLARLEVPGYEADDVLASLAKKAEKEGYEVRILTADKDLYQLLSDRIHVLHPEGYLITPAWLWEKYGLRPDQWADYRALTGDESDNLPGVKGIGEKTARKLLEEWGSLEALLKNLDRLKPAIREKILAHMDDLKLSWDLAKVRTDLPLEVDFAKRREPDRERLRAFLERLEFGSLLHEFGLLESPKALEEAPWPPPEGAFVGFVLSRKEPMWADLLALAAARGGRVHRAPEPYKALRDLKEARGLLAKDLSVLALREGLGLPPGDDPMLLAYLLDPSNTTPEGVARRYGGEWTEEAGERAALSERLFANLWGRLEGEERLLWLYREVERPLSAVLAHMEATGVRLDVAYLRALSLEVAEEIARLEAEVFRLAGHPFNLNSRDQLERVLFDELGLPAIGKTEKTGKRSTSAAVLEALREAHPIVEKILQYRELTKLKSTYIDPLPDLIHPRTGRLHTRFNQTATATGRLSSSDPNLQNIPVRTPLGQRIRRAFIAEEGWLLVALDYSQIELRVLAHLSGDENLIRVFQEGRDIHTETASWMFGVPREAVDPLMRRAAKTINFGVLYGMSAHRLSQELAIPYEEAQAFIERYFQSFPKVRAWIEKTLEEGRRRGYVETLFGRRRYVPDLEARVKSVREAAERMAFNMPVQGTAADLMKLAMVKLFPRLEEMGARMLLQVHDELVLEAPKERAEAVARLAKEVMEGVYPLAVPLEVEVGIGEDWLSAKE
Taq polymerase, sequence (P19821 whole entry): as the sequence (P19821 whole entry, the tested form may be a part) above

CCCCCCCCCCCC(=O)OCCOCCOCCOCCOCCOCCOCCOCCOCCOCCOCCOCCOCCOCCOCCOCCOCCOCCOCCOCCOCC(OCCOCCOCCOCCOCCOCCOCCOCCOCCOCCOCCOCCOCCOCCOCCOCCOCCOCCOCCOCCO)C1OCC(OCCOCCOCCOCCOCCOCCOCCOCCOCCOCCOCCOCCOCCOCCOCCOCCOCCOCCOCCOCCO)C1OCCOCCOCCOCCOCCOCCOCCOCCOCCOCCOCCOCCOCCOCCOCCOCCOCCOCCOCCOCCO (stereo not shown) [TWEEN-20, Polyoxyethylene (20) sorbitan monolaurate]
effect of surfactant on dye-inhibited ligase activity (colonies) (T4 DNA ligase): restored the activity of ligase
PCR Product ([1]; 785 WS 0.1 mg/mL, surfactant 0.1 wt %): 0 ng/µL
PCR Product ([1]; 785 WS 0.1 mg/mL, surfactant 0.5 wt %): 12.7 ng/µL
PCR Product ([1]; 785 WS 0.1 mg/mL, surfactant 1 wt %): 19 ng/µL
PCR Product ([1]; 785 WS 0.1 mg/mL, surfactant 2 wt %): 23.7 ng/µL
PCR Product ([1]; 785 WS 0.1 mg/mL, surfactant 4 wt %): 24 ng/µL
PCR Product ([1]; SDA 8080 0.2 mg/mL, surfactant 0.1 wt %): 27 ng/µL
PCR Product ([1]; SDA 8080 0.2 mg/mL, surfactant 0.5 wt %): 29 ng/µL
PCR Product ([1]; SDA 8080 0.2 mg/mL, surfactant 1 wt %): 31 ng/µL
PCR Product ([1]; SDA 8080 0.2 mg/mL, surfactant 2 wt %): 22 ng/µL
PCR Product ([1]; SDA 8080 0.2 mg/mL, surfactant 4 wt %): 19 ng/µL
effect of addition of surfactant on dye-inhibited Taq polymerase ([1]; Taq polymerases inhibited by 785 WS and SDA 8080): restored the activity of the enzyme
PCR Product ([1]; surfactant 4 wt %, 785 WS 0 mg/mL (no dye), data from a different experiment under identical PCR conditions): 28* ng/μL
PCR Product ([1]; surfactant 4 wt %, SDA 8080 0 mg/mL (no dye), data from a different experiment under identical PCR conditions): 28* ng/μL
effect of addition of surfactant on dye-inhibited quantitative PCR assay (Taq polymerase): restored the activity of the assay
Laser Stability [2]: + (less than a 20% degradation in dye absorbance over a period of 25 exposures)
